What was measured:
[1] = target: DGKα (Homo sapiens (Human), UniProt P23743); assay: In vitro DGKα inhibition assay (ADP-Glo); format: biochemical; conditions: His-tagged human recombinant enzyme, 0.1 nM DGKα, 50 μM ATP, 20 μM DLG, 90 minute incubation
Method in brief: (§1)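 His-tagged human DGKα (0.1 nM, 50 μM ATP) or DGKζ (0.4 nM, 30 μM ATP), each with 20 μM DLG, in Tris pH 7.5 buffer with CHAPS, Mg2+, Ca2+.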

[2] = target: DGKζ (Homo sapiens (Human), UniProt Q13574); assay: In vitro DGKζ inhibition assay (ADP-Glo); format: biochemical; conditions: His-tagged human recombinant enzyme, 0.4 nM DGK, 30 μM ATP, 20 μM DLG, 90 minute incubation
Chain of DGKζ (Q13574 whole entry): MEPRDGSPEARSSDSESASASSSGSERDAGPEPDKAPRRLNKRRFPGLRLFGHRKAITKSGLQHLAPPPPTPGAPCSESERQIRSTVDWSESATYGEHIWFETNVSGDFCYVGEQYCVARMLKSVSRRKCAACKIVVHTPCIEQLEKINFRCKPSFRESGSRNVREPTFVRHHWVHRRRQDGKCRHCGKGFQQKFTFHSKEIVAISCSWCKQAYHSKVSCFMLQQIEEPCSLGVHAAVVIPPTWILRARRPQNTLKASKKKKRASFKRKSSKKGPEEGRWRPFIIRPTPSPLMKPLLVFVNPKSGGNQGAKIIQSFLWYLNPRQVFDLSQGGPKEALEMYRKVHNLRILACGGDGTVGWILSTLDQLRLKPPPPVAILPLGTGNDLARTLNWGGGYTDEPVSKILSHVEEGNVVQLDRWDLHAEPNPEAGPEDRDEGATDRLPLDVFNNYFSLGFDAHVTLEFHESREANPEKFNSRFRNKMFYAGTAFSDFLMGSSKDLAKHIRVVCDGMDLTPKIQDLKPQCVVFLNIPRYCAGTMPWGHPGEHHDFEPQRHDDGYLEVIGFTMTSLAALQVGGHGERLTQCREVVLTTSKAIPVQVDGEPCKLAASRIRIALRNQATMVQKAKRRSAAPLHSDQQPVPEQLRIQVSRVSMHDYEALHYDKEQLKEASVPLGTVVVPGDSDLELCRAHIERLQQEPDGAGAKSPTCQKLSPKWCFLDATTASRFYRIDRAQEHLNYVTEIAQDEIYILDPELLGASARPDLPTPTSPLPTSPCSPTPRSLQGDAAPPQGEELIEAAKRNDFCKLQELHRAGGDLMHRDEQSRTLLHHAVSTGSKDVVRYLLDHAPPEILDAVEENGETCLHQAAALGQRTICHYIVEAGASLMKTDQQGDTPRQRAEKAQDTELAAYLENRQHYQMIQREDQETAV
Method in brief: as §1

Chain of DGKα (P23743 whole entry): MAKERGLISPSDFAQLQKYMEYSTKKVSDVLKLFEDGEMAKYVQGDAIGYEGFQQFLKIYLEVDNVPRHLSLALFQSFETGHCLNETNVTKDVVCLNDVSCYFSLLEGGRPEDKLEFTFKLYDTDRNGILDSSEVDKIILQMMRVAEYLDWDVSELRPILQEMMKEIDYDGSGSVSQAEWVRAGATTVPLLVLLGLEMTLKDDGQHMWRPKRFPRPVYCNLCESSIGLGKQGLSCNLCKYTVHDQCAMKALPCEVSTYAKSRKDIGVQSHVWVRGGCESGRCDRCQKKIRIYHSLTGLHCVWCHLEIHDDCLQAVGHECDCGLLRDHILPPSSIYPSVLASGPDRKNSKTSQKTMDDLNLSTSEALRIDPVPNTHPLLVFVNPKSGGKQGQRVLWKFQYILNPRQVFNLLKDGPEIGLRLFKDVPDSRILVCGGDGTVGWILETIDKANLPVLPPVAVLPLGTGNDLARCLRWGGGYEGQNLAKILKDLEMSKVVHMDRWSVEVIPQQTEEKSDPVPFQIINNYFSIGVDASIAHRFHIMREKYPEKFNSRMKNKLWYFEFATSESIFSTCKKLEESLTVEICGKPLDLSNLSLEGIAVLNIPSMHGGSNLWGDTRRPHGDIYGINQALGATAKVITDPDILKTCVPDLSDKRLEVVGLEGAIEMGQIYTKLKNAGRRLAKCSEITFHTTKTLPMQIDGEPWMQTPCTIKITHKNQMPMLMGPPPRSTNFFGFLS

Row | IC50 [1] | IC50 [2] | Compound
1 | ≤ 20 nM | ≤ 20 nM | Cc1nc2c(N3C[C@@H](C)N([C@H](c4ccc(F)c(Cl)c4)C(C)C)C[C@@H]3C)nc3nncn3c2n1C[C@@H]1CCCO1 [Example 86, 4-((2S,5R)-4-((S)-1-(3-Chloro-4-fluorophenyl)-2-methylpropyl)-2,5-dimethylpiperazin-1-yl)-2-methyl-1-(((S)-tetrahydrofuran-2-yl)methyl)-1H-[1,2,4]triazolo[3,4-b]purine]
2 | ≤ 20 nM | 200 to 2000 nM | Cc1nnc2nc(N3C[C@@H](C)N(C(c4ccc(F)cc4)c4ccc(F)cc4)C[C@@H]3C)c3ncsc3n12 [Example 2, 4-((2S,5R)-4-(Bis(4-fluorophenyl)methyl)-2,5-dimethylpiperazin-1-yl)-8-methylthiazolo[4,5-e][1,2,4]triazolo[4,3-a]pyrimidine]
3 | ≤ 20 nM | ≤ 20 nM | C[C@@H]1CN(c2nc3nncn3c3c2ncn3CCN(C)C)[C@@H](C)CN1C(c1ccc(Br)cc1)c1ccc(Br)cc1 [Example 109, 2-(4-((2S,5R)-4-(Bis(4-bromophenyl)methyl)-2,5-dimethylpiperazin-1-yl)-1H-[1,2,4]triazolo[3,4-b]purin-1-yl)-N,N-dimethylethan-1-amine]
4 | ≤ 20 nM | ≤ 20 nM | Cc1nc2c(N3C[C@@H](C)N([C@H](c4ccc(OC(F)(F)F)cc4)C(C)C)C[C@@H]3C)nc3nncn3c2n1C[C@@H]1CCCO1 [Example 118, 4-((2S,5R)-2,5-Dimethyl-4-((S)-2-methyl-1-(4-(trifluoromethoxy)phenyl)propyl)piperazin-1-yl)-2-methyl-1-(((S)-tetrahydrofuran-2-yl)methyl)-1H-[1,2,4]triazolo[3,4-b]purine]
5 | ≤ 20 nM | ≤ 20 nM | Cc1nc2c(N3C[C@@H]([C@@H](C)O)N(C(c4ccc(F)cc4)c4ccc(F)cc4)C[C@@H]3C)nc3nncn3c2n1C[C@@H]1CCCO1 [Example 123, (R)-1-((2S,5S)-1-(Bis(4-fluorophenyl)methyl)-5-methyl-4-(2-methyl-1-(((S)-tetrahydrofuran-2-yl)methyl)-1H-[1,2,4]triazolo[3,4-b]purin-4-yl)piperazin-2-yl)ethan-1-ol]
6 | ≤ 20 nM | ≤ 20 nM | Cc1nc2c(N3C[C@@H](C)N(C(c4ccc(F)c(Cl)c4)[C@H]4C[C@H](C(F)(F)F)C4)C[C@@H]3C)nc3nncn3c2n1C[C@@H]1CCCO1 (stereo partly drawn) [Example 113, 4-((2S,5R)-4-((3-Chloro-4-fluorophenyl)((trans)-3-(trifluoromethyl)cyclobutyl)methyl)-2,5-dimethylpiperazin-1-yl)-2-methyl-1-(((S)-tetrahydrofuran-2-yl)methyl)-1H-[1,2,4]triazolo[3,4-b]purine]
7 | ≤ 20 nM | ≤ 20 nM | CC[C@@H]1CN(c2nc3nncn3c3c2nnn3C[C@@H]2CCCO2)[C@@H](C)CN1C(c1ccc(F)cc1)c1ccc(F)cc1 [Example 30, 4-((2S,5R)-4-(Bis(4-fluorophenyl)methyl)-5-ethyl-2-methylpiperazin-1-yl)-1-(((S)-tetrahydrofuran-2-yl)methyl)-1H-[1,2,3]triazolo[4,5-e][1,2,4]triazolo[4,3-a]pyrimidine]
8 | ≤ 20 nM | ≤ 20 nM | C[C@@H]1CN(c2nc3nncn3c3c2ncn3CCN(C)C)[C@@H](C)CN1C(c1ccc(Cl)cc1)c1ccc(Cl)cc1 [Example 107, 2-(4-((2S,5R)-4-(Bis(4-chlorophenyl)methyl)-2,5-dimethylpiperazin-1-yl)-1H-[1,2,4]triazolo[3,4-b]purin-1-yl)-N,N-dimethylethan-1-amine]
9 | ≤ 20 nM | ≤ 20 nM | Cc1nc2c(N3C[C@@H](C)N(C(c4ccc(C(F)F)c(F)c4)C4CC(F)(F)C4)C[C@@H]3C)nc3nncn3c2n1C[C@@H]1CCCO1 (stereo partly drawn) [Example 135, 4-((2S,5R)-4-((3,3-Difluorocyclobutyl)(4-(difluoromethyl)-3-fluorophenyl)methyl)-2,5-dimethylpiperazin-1-yl)-2-methyl-1-(((S)-tetrahydrofuran-2-yl)methyl)-1H-[1,2,4]triazolo[3,4-b]purine]
10 | ≤ 20 nM | 20 to 200 nM | CC(C)[C@H](c1ccc(Cl)cc1)N1C[C@H](C)N(c2nc3nncn3c3c2ncn3CCN(C)C)C[C@H]1C [Example 91, 2-(4-((2S,5R)-4-((R)-1-(4-chlorophenyl)-2-methylpropyl)-2,5-dimethylpiperazin-1-yl)-1H-[1,2,4]triazolo[3,4-b]purin-1-yl)-N,N-dimethylethan-1-amine]
11 | ≤ 20 nM | ≤ 20 nM | Cc1nc2c(N3C[C@@H](C)N([C@@H](c4ccc(Cl)c(Cl)c4)C4CC(F)(F)C4)C[C@@H]3C)nc3nncn3c2n1C[C@@H]1CCCO1 [Example 49, 4-((2S,5R)-4-((R)-(3,4-dichlorophenyl)(3,3-difluorocyclobutyl)methyl)-2,5-dimethylpiperazin-1-yl)-2-methyl-1-(((S)-tetrahydrofuran-2-yl)methyl)-1H-[1,2,4]triazolo[3,4-b]purine]
12 | ≤ 20 nM | 20 to 200 nM | C[C@@H]1CN(c2nc3nncn3c3c2ncn3CC2CC2)[C@@H](C)CN1[C@H](c1ccc(F)cc1)c1ccc(OC(F)(F)F)cn1 [Example 25, 1-(cyclopropylmethyl)-4-((2S,5R)-4-((R)-(4-fluorophenyl)(5-(trifluoromethoxy)pyridin-2-yl)methyl)-2,5-dimethylpiperazin-1-yl)-1H-[1,2,4]triazolo[3,4-b]purine]
13 | ≤ 20 nM | ≤ 20 nM | Cc1nc2c(N3C[C@@H](C)N([C@H](c4ccc(OC(F)F)cc4)C(C)C)C[C@@H]3C)nc3nncn3c2n1C[C@@H]1CCCO1 [Example 79, 4-((2S,5R)-4-((S)-1-(4-(Difluoromethoxy)phenyl)-2-methylpropyl)-2,5-dimethylpiperazin-1-yl)-2-methyl-1-(((S)-tetrahydrofuran-2-yl)methyl)-1H-[1,2,4]triazolo[3,4-b]purine]
14 | ≤ 20 nM | 200 to 2000 nM | C[C@@H]1CN(c2nc3nncn3c3sc(CCC#N)nc23)[C@@H](C)CN1C(c1ccc(F)cc1)c1ccc(F)cc1 [Example 4, 3-(4-((2S,5R)-4-(Bis(4-fluorophenyl)methyl)-2,5-dimethylpiperazin-1-yl)thiazolo[4,5-e][1,2,4]triazolo[4,3-a]pyrimidin-2-yl)propanenitrile]
15 | ≤ 20 nM | ≤ 20 nM | Cc1nc2c(N3C[C@@H](C)N([C@H](c4ccc(Cl)cc4)C(C)C)C[C@@H]3C)nc3nncn3c2n1C[C@@H]1CCCO1 [Example 88, 4-((2S,5R)-4-((S)-1-(4-Chlorophenyl)-2-methylpropyl)-2,5-dimethylpiperazin-1-yl)-2-methyl-1-(((S)-tetrahydrofuran-2-yl)methyl)-1H-[1,2,4]triazolo[3,4-b]purine]
16 | ≤ 20 nM | 20 to 200 nM | N#CCC[C@@H]1CN(c2nc3nncn3c3scnc23)CCN1C(c1ccc(F)cc1)c1ccc(F)cc1 [Example 17, (R)-3-(1-(Bis(4-fluorophenyl)methyl)-4-(thiazolo[4,5-e][1,2,4]triazolo[4,3-a]pyrimidin-4-yl)piperazin-2-yl)propanenitrile]
17 | ≤ 20 nM | ≤ 20 nM | Cc1nc2c(N3C[C@@H](C)N([C@@H](c4cccc(C(F)(F)F)c4)C(C)C)C[C@@H]3C)nc3nncn3c2n1C[C@@H]1CCCO1 [Example 70, 4-((2S,5R)-2,5-dimethyl-4-((R)-2-methyl-1-(3-(trifluoromethyl)phenyl)propyl)piperazin-1-yl)-2-methyl-1-(((S)-tetrahydrofuran-2-yl)methyl)-1H-[1,2,4]triazolo[3,4-b]purine]
18 | ≤ 20 nM | ≤ 20 nM | Cc1cc(C(C2CC(F)(F)C2)N2C[C@H](C)N(c3nc4nncn4c4c3nc(C)n4C[C@@H]3CCCO3)C[C@H]2C)ccc1Cl (stereo partly drawn) [Example 51, 4-((2S,5R)-4-((4-Chloro-3-methylphenyl)(3,3-difluorocyclobutyl)methyl)-2,5-dimethylpiperazin-1-yl)-2-methyl-1-(((S)-tetrahydrofuran-2-yl)methyl)-1H-[1,2,4]triazolo[3,4-b]purine]
19 | ≤ 20 nM | ≤ 20 nM | Cc1nc2c(N3C[C@@H](C)N([C@@H](c4ccc(OC(F)(F)F)cc4)C(C)C)C[C@@H]3C)nc3nncn3c2n1C[C@@H]1CCCO1 [Example 119, 4-((2S,5R)-2,5-dimethyl-4-((R)-2-methyl-1-(4-(trifluoromethoxy)phenyl)propyl)piperazin-1-yl)-2-methyl-1-(((S)-tetrahydrofuran-2-yl)methyl)-1H-[1,2,4]triazolo[3,4-b]purine]
20 | ≤ 20 nM | ≤ 20 nM | COc1cccc([C@@H](C(C)C)N2C[C@H](C)N(c3nc4nncn4c4c3nc(C)n4C[C@@H]3CCCO3)C[C@H]2C)c1 [Example 99, 4-((2S,5R)-4-((R)-1-(3-methoxyphenyl)-2-methylpropyl)-2,5-dimethylpiperazin-1-yl)-2-methyl-1-(((S)-tetrahydrofuran-2-yl)methyl)-1H-[1,2,4]triazolo[3,4-b]purine]
21 | ≤ 20 nM | ≤ 20 nM | CC[C@@H]1CN(c2nc3nncn3c3c2nnn3C[C@H]2CCCO2)[C@@H](C)CN1C(c1ccc(Cl)cc1)c1ccc(Cl)cc1 [Example 40, 4-((2S,5R)-4-(Bis(4-chlorophenyl)methyl)-5-ethyl-2-methylpiperazin-1-yl)-1-(((R)-tetrahydrofuran-2-yl)methyl)-1H-[1,2,3]triazolo[4,5-e][1,2,4]triazolo[4,3-a]pyrimidine]
22 | ≤ 20 nM | ≤ 20 nM | C[C@@H]1CN(c2nc3nncn3c3c2ncn3CCN(C)C)[C@@H](C)CN1C(c1ccc(F)cc1)c1ccc(F)cc1 [Example 28, 2-(4-((2S,5R)-4-(Bis(4-fluorophenyl)methyl)-2,5-dimethylpiperazin-1-yl)-1H-[1,2,4]triazolo[3,4-b]purin-1-yl)-N,N-dimethylethan-1-amine]

Reference: patent US20230399342A1 (Incyte Corporation, priority 2022, published 2023)
